Measured values: patent EP2818472A1, “Imidazo[4,5-c]pyridine and pyrrolo[3,2-c]pyridine compounds as G-protein-coupled receptor kinase 5 (GRK5) modulators” (Max-Planck-Gesellschaft zur Förderung der Wissenschaften …, priority 2013, dated 2014)

What follows are molecules tested on beta-TC6 cells (assay: Insulin HTRF assay (relative activity Ar) in beta-TC6 cells). Conditions: Mus musculus, Beta-TC6, 4 h, insulin HTRF, supernatant of beta-TC6 cells, incubation with test compound at 37°C for 2, 3, 4h; read-out: Ar (relative activity).
Assay type: cell-based, mouse
Procedure, shortened: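 beta-TC6 cells (15k/well, seeded 24 or 48 h) washed, then exposed to compound in induction buffer (0.5% DMSO final) for 2, 3 or 4 h at 37°C.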
In the case of CNc1nc2cnc(Nc3ccc(OC)cc3)cc2n1CCOC [Compound 496, 1-(2-methoxyethyl)-N6-(4-methoxyphenyl)-N2-methyl-imidazo[4,5-c]pyridine-2,6-diamine], the Emax is reported as 50 to 100%.
CNc1nc2cnc(Nc3ccc4c(c3)OCO4)cc2n1CCOC [Compound 497, N6-(1,3-benzodioxol-5-yl)-1-(2-methoxyethyl)-N2-methyl-imidazo[4,5-c]pyridine-2,6-diamine] gave an Emax of 50 to 100%.
In the case of CNc1nc2cnc(Nc3ccc(C(C)C)cc3)cc2n1CCOC [Compound 498, N6-(4-isopropylphenyl)-1-(2-methoxyethyl)-N2-methyl-imidazo[4,5-c]pyridine-2,6-diamine], the Emax is reported as 30 to 50%.
In the case of CNc1nc2cnc(Nc3ccc(SC)cc3)cc2n1CCOC [Compound 499, 1-(2-methoxyethyl)-N2-methyl-N6-(4-methylsulfanylphenyl)imidazo[4,5-c]pyridine-2,6-diamine], the Emax is reported as 50 to 100%.
Work on CNc1nc2cnc(Nc3ccc(OC(C)C)cc3)cc2n1CCOC [Compound 500, N6-(4-isopropoxyphenyl)-1-(2-methoxyethyl)-N2-methyl-imidazo[4,5-c]pyridine-2,6-diamine] yielded an Emax of 50 to 100%.
With CNc1nc2cnc(Nc3cc(OC)c(OC)c(OC)c3)cc2n1-c1ccccc1 [Compound 502, N2-methyl-1-phenyl-N6-(3,4,5-trimethoxyphenyl)imidazo[4,5-c]pyridine-2,6-diamine] the Emax was 50 to 100%.
CNc1nc2cnc(Nc3cccc(OC)c3)cc2n1-c1ccccc1 [Compound 503, N6-(3-methoxyphenyl)-N2-methyl-1-phenyl-imidazo[4,5-c]pyridine-2,6-diamine] showed an Emax of 50 to 100%.
CNc1nc2cnc(Nc3ccc(C(N)=O)cc3)cc2n1-c1ccccc1 [Compound 504, 4-[[2-(methylamino)-1-phenyl-imidazo[4,5-c]pyridin-6-yl]amino]benzamide] showed an Emax of 50 to 100%.
Molecule CNc1nc2cnc(Nc3ccc4c(c3)OCCO4)cc2n1-c1ccccc1 [Compound 505, N6-(2,3-dihydro-1,4-benzodioxin-6-yl)-N2-methyl-1-phenyl-imidazo[4,5-c]pyridine-2,6-diamine] has an Emax of 50 to 100%.
For CNc1nc2cnc(Nc3ccc(OC)c(OC)c3)cc2n1-c1ccccc1 [Compound 506, N6-(3,4-dimethoxyphenyl)-N2-methyl-1-phenyl-imidazo[4,5-c]pyridine-2,6-diamine], the Emax was 50 to 100%.
Molecule CNc1nc2cnc(Nc3cccnc3)cc2n1-c1ccccc1 [Compound 507, N2-methyl-1-phenyl-N6-(3-pyridyl)imidazo[4,5-c]pyridine-2,6-diamine] has an Emax of 30 to 50%.
CNc1nc2cnc(Nc3cccc(N(C)C)c3)cc2n1-c1ccccc1 [Compound 508, N6-[3-(dimethylamino)phenyl]-N2-methyl-1-phenyl-imidazo[4,5-c]pyridine-2,6-diamine] was tested, and the Emax was 50 to 100%.
Molecule CNc1nc2cnc(Nc3ccc(OC)cc3)cc2n1-c1ccccc1 [Compound 509, N6-(4-methoxyphenyl)-N2-methyl-1-phenyl-imidazo[4,5-c]pyridine-2,6-diamine] has an Emax of 50 to 100%.
Molecule CNc1nc2cnc(Nc3ccc(C(=O)OC)cc3)cc2n1-c1ccccc1 [Compound 511, methyl 4-[[2-(methylamino)-1-phenyl-imidazo[4,5-c]pyridin-6-yl]amino]benzoate] has an Emax of 30 to 50%.
CNc1nc2cnc(Nc3ccc4c(c3)OCO4)cc2n1-c1ccccc1 [Compound 512, N6-(1,3-benzodioxol-5-yl)-N2-methyl-1-phenyl-imidazo[4,5-c]pyridine-2,6-diamine] was tested, and the Emax was 50 to 100%.
CNc1nc2cnc(Nc3cccc(O)c3)cc2n1-c1ccccc1 [Compound 513, 3-[[2-(methylamino)-1-phenyl-imidazo[4,5-c]pyridin-6-yl]amino]phenol] was tested, and the Emax was 50 to 100%.
With CNc1nc2cnc(-c3cccs3)cc2n1-c1ccccc1 [Compound 514, N-methyl-1-phenyl-6-(2-thienyl)imidazo[4,5-c]pyridin-2-amine] the Emax was 30 to 50%.
With CNc1nc2cnc(Nc3ccc(C(=O)N(C)C)cc3)cc2n1-c1ccccc1 [Compound 515, N,N-dimethyl-4-[[2-(methylamino)-1-phenyl-imidazo[4,5-c]pyridin-6-yl]amino]benzamide] the Emax was 50 to 100%.
CNc1nc2cnc(Nc3cccc(NC(C)=O)c3)cc2n1-c1ccccc1 [Compound 516, N-[3-[[2-(methylamino)-1-phenyl-imidazo[4,5-c]pyridin-6-yl]amino]phenyl]acetamide] showed an Emax of 50 to 100%.
In the case of CNc1nc2cnc(Nc3cccc(C(C)=O)c3)cc2n1-c1ccccc1 [Compound 517, 1-[3-[[2-(methylamino)-1-phenyl-imidazo[4,5-c]pyridin-6-yl]amino]phenyl]ethanone], the Emax is reported as 50 to 100%.
For CNc1nc2cnc(Nc3ccc(S(C)(=O)=O)cc3)cc2n1-c1ccccc1 [Compound 518, N2-methyl-N6-(4-methylsulfonylphenyl)-1-phenyl-imidazo[4,5-c]pyridine-2,6-diamine], the Emax was 50 to 100%.
Work on CNc1nc2cnc(Nc3cc(OC)c(OC)c(OC)c3)cc2n1Cc1ccco1 [Compound 519, 1-(2-furylmethyl)-N2-methyl-N6-(3,4,5-trimethoxyphenyl)imidazo[4,5-c]pyridine-2,6-diamine] yielded an Emax of 50 to 100%.
CNc1nc2cnc(Nc3ccc(OC)c(OC)c3)cc2n1Cc1ccco1 [Compound 520, N6-(3,4-dimethoxyphenyl)-1-(2-furylmethyl)-N2-methyl-imidazo[4,5-c]pyridine-2,6-diamine] was tested, and the Emax was 50 to 100%.
Work on CNc1nc2cnc(Nc3ccc(N4CCOCC4)cc3)cc2n1Cc1ccco1 [Compound 521, 1-(2-furylmethyl)-N2-methyl-N6-(4-morpholinophenyl)imidazo[4,5-c]pyridine-2,6-diamine] yielded an Emax of over 100%.
CNc1nc2cnc(Nc3cccc(N(C)C)c3)cc2n1Cc1ccco1 [Compound 522, N6-[3-(dimethylamino)phenyl]-1-(2-furylmethyl)-N2-methyl-imidazo[4,5-c]pyridine-2,6-diamine] was tested, and the Emax was 30 to 50%.
With CNc1nc2cnc(Nc3ccc(OC)cc3)cc2n1Cc1ccco1 [Compound 523, 1-(2-furylmethyl)-N6-(4-methoxyphenyl)-N2-methyl-imidazo[4,5-c]pyridine-2,6-diamine] the Emax was 50 to 100%.
CNc1nc2cnc(Nc3ccc4c(c3)OCO4)cc2n1Cc1ccco1 [Compound 524, N6-(1,3-benzodioxol-5-yl)-1-(2-furylmethyl)-N2-methyl-imidazo[4,5-c]pyridine-2,6-diamine] was tested, and the Emax was 50 to 100%.
CNc1nc2cnc(-c3ccc(N(C)C)cc3)cc2n1Cc1ccccc1 [Compound 525, 1-benzyl-6-(4-dimethylaminophenyl)-N-methyl-imidazo[4,5-c]pyridin-2-amine] gave an Emax of 30 to 50%.
Work on CNc1nc2cnc(Nc3cc(OC)c(OC)c(OC)c3)cc2n1Cc1ccccc1 [Compound 526, 1-benzyl-N2-methyl-N6-(3,4,5-trimethoxyphenyl)imidazo[4,5-c]pyridine-2,6-diamine] yielded an Emax of 50 to 100%.

Same assay, conditions: insulin HTRF, supernatant of beta-TC6 cells, incubation with test compound at 37°C for 2, 3, 4h
With CNc1nc2cnc(-c3ccc(N(C)C)cc3)cc2n1-c1ccccc1 [Compound 501, 6-(4-dimethylaminophenyl)-N-methyl-1-phenyl-imidazo[4,5-c]pyridin-2-amine] the “Ar (relative activity)” value was “++++ (Ar ≥ 100 %)”.
In the case of CNc1nc2cnc(-c3ccc(CO)cc3)cc2n1-c1ccccc1 [Compound 510, [4-[2-(methylamino)-1-phenyl-imidazo[4,5-c]pyridin-6-yl]phenyl]methanol], the “Ar (relative activity)” value is reported as “++ (30 % ≤ Ar < 50 %)”.
